IC50 data for 27 molecules are collected here from US10183944B2 (Asana Biosciences, LLC, priority 2011, dated 2019).

Structures can show the parent of a compound that is named as a salt.

For this assay, the target named is Syk (356-635 amino acids) catalytic domain (Homo sapiens (Human), UniProt P43405). Description: Inhibition of enzymatic Syk kinase activity (radiometric). The settings on record: read-out: IC50 Syk. Type of assay: biochemical. The text has this: The objective of this assay was to examine by radiometric method the ability of compounds to inhibit Syk kinase enzyme. Syk is capable of phosphorylating substrates such as VAV, LAT, SLP-76, which in turn activate MAPK, PLCγ signaling pathways. […] This in vitro assay tests the ability of syk to phosphorylate a substrate peptide in the presence of ATP. By using a radio-labeled form of ATP, it is possible to measure the amount of phosphorylation of the substrate. The enzyme transfers a radio-labeled phosphate group from γ32 P labeled ATP to pG4T. Briefly the enzyme was incubated with substrate, radio-labeled & cold ATP and substrate in buffer with or without compounds. At the end of the reaction, the reaction mixture was transferred on to a Multiscreen filter plate and unreacted γ^32P ATP was washed off. The filter plate was dried and the radioactivity was measured on a scintillation counter to estimate the incorporated radioactivity on the substrate. The percent inhibition of activity of the enzyme was calculated by comparing counts in the presence and absence of compounds. […] 2.5 μL of 10% DMSO or compound in 10% DMSO was added to the wells in a 96 well V-bottom plate. Optimized concentration of in-house Syk enzyme (different batches of Syk (356-635) kinase domain) were used at optimized concentrations) ranging from 0.035 ng to 7.5 ng/reaction diluted in assay buffer was added to a total volume of 12.5 μL). Compound and protein were incubated for 30 minutes at room temperature on a plate shaker. Ten μL of a substrate mix containing 100 μM ATP (0.25 μL), γ-P^32-ATP (0.1 μL; 10 μCi/μL), pG4T (0.25 μL; 10 mg/mL) and 1× assay buffer (9.4 μL) was added to all the wells. Samples were incubated at 30° C. for 10 minutes after mixing. The reaction was stopped by the addition of 8N HCl (13 μL) containing 100 mM ATP. Thirty μL of sample was transferred to the center of a 2×2 cm^2 Whatman® P81 chromatography paper. After allowing the sample to dry for one minute, the assay squares were washed 3 times for 5 minutes each in ortho-phosphoric acid (0.5%) and once in acetone. Assay squares were dried for 15 minutes in a 30° C. oven and transferred to 96 well optiplate. Microscint-O® reagent (100 μL, Perkin Elmer) was added to each well, the plate was sealed with Topseal®-A microplates and incubated for 10 minutes at room temperature at very low speed on rocker and the plate was read in the Topcount® NXL instrument. The following calculations were made: Fold induction=radioactivity counts (uncorrected values) in positive control/substrate control.
With `O=C(c1ccc(Nc2nc(-c3ccccc3)nc3cn[nH]c(=O)c23)cc1)N1CCOCC1` [Example 9, 4-(4-(morpholine-4-carbonyl)phenylamino)-2-phenylpyrimido[4,5-d]pyridazin-5(6H)-one], the IC50 (in general, the concentration at which inhibition is half-maximal) was above 100 nM. For `NCC(=O)N1CCN(c2ccc(Nc3nc(-c4ccccc4)nc4cn[nH]c(=O)c34)cc2)CC1` [Example 14, 4-(4-(4-(2-aminoacetyl)piperazin-1-yl)phenylamino)-2-phenylpyrimido[4,5-d]pyridazin-5(6H)-one], the IC50 was below 10 nM. To `CN(C)CCN(C)C(=O)c1ccc(Nc2nc(-c3ccccc3)nc3cn[nH]c(=O)c23)cc1` [Example 15, N-(2-(dimethylamino)ethyl)-N-methyl-4-(5-oxo-2-phenyl-5,6-dihydropyrimido[4,5-d]pyridazin-4-ylamino)benzamide] belongs above 100 nM.

As for `O=C1CC2(CCN(c3ccc(Nc4nc(-c5ccccc5)nc5cn[nH]c(=O)c45)cc3)CC2)N1` [Example 16, 4-(4-(2-oxo-1,7-diazaspiro[3.5]nonan-7-yl)phenylamino)-2-phenylpyrimido[4,5-d]pyridazin-5(6H)-one], the 50% inhibitory concentration (IC50) was above 100 nM. As for `O=c1[nH]ncc2nc(-c3ccccc3)nc(Nc3ccc(N4CCC5(CC4)COC5)cc3)c12` [Example 17, 4-(4-(2-oxa-7-azaspiro[3.5]nonan-7-yl)phenylamino)-2-phenylpyrimido[4,5-d]pyridazin-5(6H)-one], the figure is above 100 nM; as for `CCOC(=O)C1CC12CCN(c1ccc(Nc3nc(-c4ccccc4)nc4cn[nH]c(=O)c34)cc1)CC2` (stereo not drawn) [Example 20, ethyl 6-(4-(5-oxo-2-phenyl-5,6-dihydropyrimido[4,5-d]pyridazin-4-ylamino)phenyl)-6-azaspiro[2.5]octane-1-carboxylate], above 100 nM.

On to `O=C(O)C1CC12CCN(Cc1ccc(Nc3nc(-c4ccccc4)nc4cn[nH]c(=O)c34)cc1)CC2` (stereo not drawn) [Example 21, 6-(4-(5-oxo-2-phenyl-5,6-dihydropyrimido[4,5-d]pyridazin-4-ylamino)benzyl)-6-azaspiro[2.5]octane-1-carboxylic acid], for which the IC50 is above 100 nM.

As to `COC(=O)c1ccc(-c2nc(Nc3ccc(N4CCOCC4)cc3)c3c(=O)[nH]ncc3n2)cc1` [Example 29, methyl 4-(4-(4-morpholinophenylamino)-5-oxo-5,6-dihydropyrimido[4,5-d]pyridazin-2-yl)benzoate], the IC50 was above 100 nM. With `O=C(O)C1CC12CCN(c1ccc(Nc3nc(N4CCOCC4)nc4cn[nH]c(=O)c34)cc1)CC2` (stereo not drawn) [Example 42, 6-(4-((2-morpholino-5-oxo-5,6-dihydropyrimido[4,5-d]pyridazin-4-yl)amino)phenyl)-6-azaspiro[2.5]octane-1-carboxylic acid], the IC50 was below 100 nM. Consider `O=c1[nH]ncc2nc(-c3ccccc3)nc(Nc3cnn(CCN4CCOCC4)c3)c12` [Example 58, 4-((1-(2-morpholinoethyl)-1H-pyrazol-4-yl)amino)-2-phenylpyrimido[4,5-d]pyridazin-5(6H)-one], for which the 50% inhibitory concentration (IC50) was above 100 nM. As for `COc1nc(Nc2ccc(CN3CCNCC3)cc2)c2c(=O)[nH]ncc2n1` [Example 61, 2-methoxy-4-((4-(piperazin-1-ylmethyl)phenyl)amino)pyrimido[4,5-d]pyridazin-5(6H)-one hydrochloride], the IC50 is above 100 nM. For `O=c1[nH]ncc2nc(-c3ccccc3)nc(Nc3cnn(CCN4CCNCC4)c3)c12` [Example 63, 2-phenyl-4-((1-(2-(piperazin-1-yl)ethyl)-1H-pyrazol-4-yl)amino)pyrimido[4,5-d]pyridazin-5(6H)-one hydrochloride], the IC50 is above 100 nM. Regarding `CN1CCN(CCn2cc(Nc3nc(-c4ccccc4)nc4cn[nH]c(=O)c34)cn2)CC1` [Example 64, 4-((1-(2-(4-methylpiperazin-1-yl)ethyl)-1H-pyrazol-4-yl)amino)-2-phenylpyrimido[4,5-d]pyridazin-5(6H)-one], the IC50 is above 100 nM. Consider `CCN1CCN(CCn2cc(Nc3nc(-c4ccccc4)nc4cn[nH]c(=O)c34)cn2)CC1` [Example 65, 4-((1-(2-(4-ethylpiperazin-1-yl)ethyl)-1H-pyrazol-4-yl)amino)-2-phenylpyrimido[4,5-d]pyridazin-5(6H)-one], for which the IC50 is above 100 nM. Regarding `COc1cc(Nc2nc(N3CCCCCC3)nc3cn[nH]c(=O)c23)cc(OC)c1OC` [Example 67, 2-(azepan-1-yl)-4-((3,4,5-trimethoxyphenyl)amino)pyrimido[4,5-d]pyridazin-5(6H)-one], the IC50 was above 100 nM. To `N#CCN1CCN(c2nc(Nc3ccc(N4CCC5(CC4)CC5C(=O)O)cc3)c3c(=O)[nH]ncc3n2)CC1` (stereo not drawn) [Example 73, 6-(4-((2-(4-(cyanomethyl)piperazin-1-yl)-5-oxo-5,6-dihydropyrimido[4,5-d]pyridazin-4-yl)amino)phenyl)-6-azaspiro[2.5]octane-1-carboxylic acid] belongs below 100 nM. Turning to `N#CC1CCN(c2nc(Nc3ccc(N4CCC5(CC4)CC5C(=O)O)cc3)c3c(=O)[nH]ncc3n2)CC1` (stereo not drawn) [Example 74, 6-(4-((2-(4-cyanopiperidin-1-yl)-5-oxo-5,6-dihydropyrimido[4,5-d]pyridazin-4-yl)amino)phenyl)-6-azaspiro[2.5]octane-1-carboxylic acid], the IC50 was above 100 nM. Regarding `N#CC1CCN(c2nc(Nc3ccc(N4CCC(CC(=O)O)CC4)cc3)c3c(=O)[nH]ncc3n2)CC1` [Example 75, 2-(1-(4-((2-(4-cyanopiperidin-1-yl)-5-oxo-5,6-dihydropyrimido[4,5-d]pyridazin-4-yl)amino)phenyl)piperidin-4-yl)acetic acid], the IC50 is below 100 nM. As for `N#CC1CCN(c2nc(Nc3ccc(CN4CCC(C(=O)O)CC4)cc3)c3c(=O)[nH]ncc3n2)CC1` [Example 76, 1-(4-((2-(4-cyanopiperidin-1-yl)-5-oxo-5,6-dihydropyrimido[4,5-d]pyrimido[4,5-d]pyridazin-4-yl)amino)benzyl)piperidine-4-carboxylic acid], the figure is above 100 nM; as for `N#CCC1CCN(c2nc(Nc3ccc(CN4CCC(C(=O)O)CC4)cc3)c3c(=O)[nH]ncc3n2)CC1` [Example 78, 1-(4-((2-(4-(cyanomethyl)piperidin-1-yl)-5-oxo-5,6-dihydropyrimido[4,5-d]pyridazin-4-yl)amino)benzyl)piperidine-4-carboxylic acid], below 100 nM; as for `N#CCC1CCN(c2ccc(Nc3nc(-c4ccccc4)nc4cn[nH]c(=O)c34)cc2)CC1` [Example 82, 2-(1-(4-((5-oxo-2-phenyl-5,6-dihydropyrimido[4,5-d]pyridazin-4-yl)amino)phenyl)piperidin-4-yl)acetonitrile], above 100 nM. In the case of `O=C(O)CC1CCN(c2ccc(Nc3nc(C4CCCCCC4)nc4cn[nH]c(=O)c34)cc2)CC1` [Example 90, 2-(1-(4-((2-cycloheptyl-5-oxo-5,6-dihydropyrimido[4,5-d]pyridazin-4-yl)amino)phenyl)piperidin-4-yl)acetic acid], the IC50 is below 100 nM. To `O=c1[nH]ncc2nc(-c3ccccc3)nc(Nc3ccc(OCCN4CCOCC4)cc3)c12` [Example 94, 4-((4-(2-morpholinoethoxy)phenyl)amino)-2-phenylpyrimido[4,5-d]pyridazin-5(6H)-one] belongs below 100 nM.

On to `N#CCC1CCN(c2ccc(Nc3nc(N4CCCCCC4)nc4cn[nH]c(=O)c34)cn2)CC1` [Example 97, 2-(1-(5-((2-(azepan-1-yl)-5-oxo-5,6-dihydropyrimido[4,5-d]pyridazin-4-yl)amino)pyridin-2-yl)piperidin-4-yl) acetonitrile], for which the concentration for half-maximal inhibition (IC50) is above 100 nM.

`CC(C)(C#N)N1CCN(c2ccc(Nc3nc(N4CCCCCC4)nc4cn[nH]c(=O)c34)cc2)CC1` [Example 111, 2-(4-(4-((2-(azepan-1-yl)-5-oxo-5,6-dihydropyrimido[4,5-d]pyridazin-4-yl)amino)phenyl)piperazin-1-yl)-2-methylpropanenitrile]: the IC50 was below 50 nM. With `CC(C)(C#N)C1CCN(c2ccc(Nc3nc(-c4ccccc4)nc4cn[nH]c(=O)c34)cc2)CC1` [Example 119, 2-methyl-2-(1-(4-((5-oxo-2-phenyl-5,6-dihydropyrimido[4,5-d]pyridazin-4-yl)amino)phenyl)piperidin-4-yl) propanenitrile], the IC50 is above 100 nM. Take `O=c1[nH]ncc2nc(-c3ccccc3)nc(Nc3ccc(OC[C@@H]4CO[C@@H](CO)CO4)cc3)c12` [Example 122, 4-((4-(((2S,5S)-5-(hydroxymethyl)-1,4-dioxan-2-yl)methoxy)phenyl)amino)-2-phenylpyrimido[4,5-d]pyridazin-5(6H)-one]: the IC50 is above 100 nM.
